The values below come from patent publication US20230067015A1, “SYSTEMS AND METHODS FOR ANTIBACTERIAL SUSCEPTIBILITY TESTING USING DYNAMIC LASER SPECKLE IMAGING” (The Penn State Research Foundation, priority 2020, published 2023).

In brackets after ≈: the same amount, converted by molar mass. Read-outs that look alike come from different tables or passages of the source.

Assay [1] has as its system E. coli K-12. As to the kind of experiment: Average intensity of raw dynamic laser speckle images. Format: cell-based. The following applies: Escherichia coli, K12; E. coli K-12, simple intensity measurement (false positive vs overnight MIC); read-out: MIC determined from speckle intensity data. As for the experimental part: A helium-neon laser (wavelength: 632.8 nm, power: 0.8 mW, HNLS008L, Thorlabs Inc., USA) was used as an illumination source. The laser beam was slightly expanded by using a concave lens (focal length=−25.0 mm) before illuminating a cuvette (Fisherbrand, CAS#14-955-129) containing 3 mL of bacterial suspension. The resultant speckle pattern was captured by a CMOS camera (Zyla, ANDOR), interfaced to a computer. Note that other methods, such as an inverse telescope beam expander, can also be used to increase the incident laser beam size. Our choice of a diverging lens is due to its simplicity and compactness as well as the fact that an explicit physical model is not needed for the machine learning based analysis, which relaxes the requirement of a plane-wave incident beam as commonly used in dynamic light scattering. […]
The OD data and the average intensity values obtained from raw speckle patterns (examples shown in FIG. 2) are shown in FIG. 3A-B and FIG. 3C-D for ampicillin and gentamicin, respectively. […] While the OD values for different antibiotic concentrations are below the detection limit of the OD reading even after 120 min, the average speckle intensity values are distinguishable in 90 min. […]

In assay [2] the test system is E. coli K-12. As to the kind of experiment: Broth microdilution MIC (CLSI), confirmed by time-kill kinetics. Type of assay: cell-based, Escherichia coli. The following applies: E. coli K-12, gold standard overnight methods. As for the experimental part:
(§1) Escherichia coli (E. coli) strain K-12 was used as a model bacterial strain in all experiments with ampicillin, gentamicin, and ceftriaxone. Multi-drug resistant (MDR) E. coli strain PS00278A (porcine isolate) was tested with ampicillin and gentamicin to contrast with the susceptible model bacterial strain. Staphylococcus aureus (S. aureus) strain PS00975A (human clinical isolate) was used with ampicillin to evaluate the methods' performance on a Gram-positive microorganism. Cultures were stored as a frozen stocks at −80° C. and resuscitated every 14 days to maintain a fresh inoculum. The culture was resuscitated by streaking onto Muller Hinton Agar (MHA) and was then incubated at 37° C. 20+/−2 h. A single colony from the MHA agar was re-streaked on a fresh MHA plate and incubated at 37° C. 20+/−2 h. A single colony from the MHA sub-streak plate was inoculated into 10 mL Muller Hinton Broth (MHB) and incubated at 37° C., shaking at 210 rpm, for 20+/−2 h. The overnight culture was diluted in MHB based on the OD600 to obtain 5×10^5 CFU/mL using a BioPhotometer D30 (Eppendorf, Hauppauge, N.Y.). An OD600 of 1 was considered to be equal to 8×10^8 CFU/mL, based on an E. coli OD600-CFU/ml standard curve.
(§2) The 5×10^5 CFU/mL culture was used for broth microdilution and speckle imaging. […] The CLSI guideline M100 ED30:2020 was used to define clinical resistance based on determined MICs. […] MIC was determined by visually inspecting wells for turbidity resulting from culture growth.
Broth macrodilution was used to determine the time-kill kinetics of all strains, Culture in concentration of 5×10^5 CFU/mL was first grown for 1 hour at 37° C. in a shaking condition (210 rpm) and was then exposed to antibiotic concentrations of 0×MIC (control), 1×MIC, and 2×MIC that were previously determined via broth microdilution. Viable cells were quantified at times 0, 1, 2, 3, 5, 8, 16, and 24 hours by spiral plating (easySpiral, Interscience) 10-fold dilutions onto MHB agar. Inoculated plates were incubated at 37° C. for 16-20 hours and counted to determine the CFU/mL at each time point. […]

Assay [3] concerns MDR E. coli PS00278A. The assay can be described thus: Broth microdilution MIC (CLSI). Type of assay: cell-based, Escherichia coli. As for the experimental part:
as §1, with “An OD600 of 1 was considered to be equal to 8×10^8 CFU/mL, based on an E. coli OD600-CFU/ml standard curve.” left out
as §2

For assay [4], the system named is MDR E. coli PS00278A. Particulars: CLSI guideline M100 ED30:2020, tested on MDR E. coli; cited from earlier work.
The test system of assay [5] is E. coli K-12. The assay can be described thus: DyRAST: ANN pixel-level prediction on DLSI data with voting. Type of assay: cell-based, Escherichia coli. The following applies: 2×MIC. As for the experimental part:
For DLSI-based AST, the culture grown as outlined above was adjusted to 5×10^5 CFU/mL and was further incubated at 37° C., 210 rpm for 1 h to reach the logarithmic growth phase before an antibiotic was added to the culture in concentrations equal to 0×MIC (control), 0.5×MIC, 1×MIC, and 2×MIC. Three mL of each culture were collected at each time point, ti (i=0, 1, . . . , 4) at 0, 30 min, 60 min, 90 min, and 120 min, respectively, and transferred into the cuvette used for DLSI in the imaging system described above. At each ti, a dynamic speckle patterns series (16 bits, 1000×2000 pixels, 50 frames per second) was collected. The exposure time for each frame was 1 msec (millisecond) and the full capture period was 10 sec at each time point, ti. All experiments were conducted in independent triplicates.
The raw images (1000×2000) were first resized (100×200) using the nearest neighbor method to reduce the computational cost. The camera has a pixel size of 6.5 μm, corresponding to a 6.5 mm×13 mm detection area. Fourier Transform (FT) was performed along the time axis of the measured data cube. […]
The experimental replicates are pooled, processed together, and then divided randomly into training, validation, and test groups. […] Binary classification for the “Inhibited” and “Non-Inhibited” bacteria groups was determined with the input from frequency domain for each pixel. […]

Setting [6] is: Escherichia coli, K12, read-out: MIC.

In general, MIC refers to the lowest concentration found to suppress growth. For the molecule `CC1(C)S[C@@H]2[C@H](NC(=O)[C@H](N)c3ccccc3)C(=O)N2[C@H]1C(=O)O` [ampicillin, Ampicillin], the minimal inhibitory concentration (MIC) in the assay on E. coli K-12 [1] is 2 µg/mL (≈ 5.72 µM); in the assay on E. coli K-12 [2] (setting [6]), 4 µg/mL (≈ 11.4 µM); in the assay with MDR E. coli PS00278A [3] (Escherichia coli, read-out: MIC), 2000 µg/mL (≈ 5720 µM). In the assay on MDR E. coli PS00278A [4], the “intermediate breakpoint concentration (clinical resistance diagnosis breakpoint)” value was 16 µg/mL. Also, the “predicted percentage of classification as "Inhibited"” value in the assay on E. coli K-12 [5] (30 min) is recorded as approximately 50%. Also, in the assay with E. coli K-12 [5] (60 min), the “predicted percentage of classification as "Inhibited" (votes)” value is “more than 80%”.

`CO/N=C(\C(=O)N[C@@H]1C(=O)N2C(C(=O)O)=C(CSc3nc(=O)c(=O)[nH]n3C)CS[C@H]12)c1csc(N)n1` [ceftriaxone]: in the assay with E. coli K-12 [2] (setting [6]), the MIC worked out at 0.0625 µg/mL (≈ 0.113 µM).

As for gentamicin, the MIC in the assay with E. coli K-12 [2] worked out at 2 µg/mL; against MDR E. coli PS00278A [3], 128 µg/mL. In the assay with MDR E. coli PS00278A [4], the “intermediate breakpoint concentration (clinical resistance diagnosis breakpoint)” value was 8 µg/mL.
